Assay results from patent US20110178396A1, “Nicotinamide Derivatives” (CRC FOR BIOMEDICAL IMAGING DEVELOPMENT LTD., priority 2008, published 2011).

System: A375 human amelanotic melanoma tumour
Experiment: Biodistribution in A375 melanoma tumour bearing mice
Format: in vivo, BALB/c nude mice
Conditions: for Organ distribution Intestine / Organ distribution Liver / Organ distribution Spleen / Organ distribution Stomach / Organ distribution Thyroid / Organ distribution Tumour: mean ± S.D.
Description: Animal experiments were performed in compliance with the NHMRC Australian Code of Practice for the care and use of animals for scientific purposes. Female C57BL/6J black and BALB/c nude albino mice of 5 weeks age were obtained from the Animal Resources Centre, Western Australia. B16F0 murine melanoma cells were originally obtained from European Collection of Cell Cultures (UK) and A375 human amelanotic melanoma cells were originally obtained from American Type Culture Collection (USA). Before transplantation, B16F0 and A375 melanoma cells were maintained as a monolayer in RPMI culture medium supplemented with 10% foetal calf serum and antibiotics and passaged with trypsinisation. Early passages were frozen and stored in liquid nitrogen. Cells were passaged to P=10 and then discarded. Frozen aliquots were grown in a monolayer culture to between 80-95% confluence and for transplantation were trypsinised and washed with Ca^2+ and Mg^2+ free phosphate buffered saline (PBS). For inoculation, B16F0 melanoma cells were resuspended in Ca^2+ and Mg^2+ free PBS at 3 or 5×10^6 viable cells per ml and 0.1 ml was subcutaneously injected at the left flank of 6-7 weeks old C57BL/6J mice. Eleven days later, tumours could be palpated in >98% of inoculated animals. A375 human melanoma cells were resuspended at 1×10^7 viablecells per ml and 0.1 ml was injected subcutaneously at the left flank of 6 weeks old BALB/c nude mice and 25-26 days later tumours could be palpated with ˜60% of inoculated animals developing tumours.
Eleven days (B16F0 melanoma) and 25 days (A375 human melanoma) after tumour transplantation, the [^18F]nicotinamides (0.5-1.5 MBq, 100 μl) and [^123I]nicotinamide (0.37-0.74 MBq, 100 μl) derivatives were injected intravenously via the tail vein into mice (15-18 g). Time points of 1, 3, 6, 24, 48, 72 h after injection were chosen for determining the distribution of each compound in various organs and tissues for the iodine-123 labelled compounds and between 15 min and 6 hours (e.g. 15 min, 30 min, 1 h, 2 h, 4 h or 6 h) were chosen for the ^18F-labelled compounds. At defined times post injection, groups of mice (n=5) were weighed, sacrificed by CO2 administration followed by cervical dislocation and dissected. Selected organs were weighed and their radioactivity measured with a γ-counter. The remaining activity in the carcass was also determined in order to obtain the total activity in the mouse at defined time points. The fraction of injected activity (% ID) in the organ was calculated by comparison with suitable dilutions of the injected dose. Then, the radioactivity concentration in the organ (% ID/g) was found by dividing the % ID for each organ by the weight of the organ.

[1] = A375 tumour bearing mice, 30 min
[2] = A375 tumour, BALB/c nude mice, 1 h, n = 5
[3] = A375 tumour, BALB/c nude mice, 1 h, mean ± SD, n = 5
[4] = A375 tumour, BALB/c nude mice, 6 h, n = 5
[5] = A375 tumour, BALB/c nude mice, 6 h, mean ± SD, n = 5
[6] = A375 tumour, BALB/c nude mice, 24 h, n = 5
[7] = A375 tumour, BALB/c nude mice, 24 h, mean ± SD, n = 5

CCN(CC)CCNC(=O)c1ccc(F)nc1 [[^18F]MEL2, 6-Fluoro-N-[2-(diethylamino)ethyl]nicotinamide]
uptake in tissue (tumour and eyes) (A375 amelanotic melanoma tumour bearing mice, three hour period): low uptake | uptake BLADDER [1]: 8.937 % ID/g | uptake BLOOD [1]: 1.323 % ID/g | uptake BONE [1]: 1.912 % ID/g | uptake BRAIN [1]: 1.831 % ID/g | uptake EYES [1]: 1.704 % ID/g | uptake GIT [1]: 3.432 % ID/g | uptake HEART [1]: 1.898 % ID/g | uptake KIDNEY [1]: 7.103 % ID/g | uptake LIVER [1]: 6.820 % ID/g | uptake LUNGS [1]: 2.836 % ID/g | uptake MUSCLE [1]: 2.125 % ID/g | uptake SKIN [1]: 2.521 % ID/g | uptake SPLEEN [1]: 4.093 % ID/g | uptake STOMACH [1]: 3.795 % ID/g | uptake THYROID [1]: 2.745 % ID/g | uptake TUMOUR [1]: 2.633 % ID/g | uptake URINE [1]: 609.148 % ID/g | uptake BLADDER (A375 tumour bearing mice, 1 h): 3.717 % ID/g | uptake BLOOD (A375 tumour bearing mice, 1 h): 0.480 % ID/g | uptake BONE (A375 tumour bearing mice, 1 h): 0.863 % ID/g | uptake BRAIN (A375 tumour bearing mice, 1 h): 0.822 % ID/g | uptake EYES (A375 tumour bearing mice, 1 h): 0.626 % ID/g | uptake GIT (A375 tumour bearing mice, 1 h): 1.564 % ID/g | uptake HEART (A375 tumour bearing mice, 1 h): 0.604 % ID/g | uptake KIDNEY (A375 tumour bearing mice, 1 h): 2.032 % ID/g | uptake LIVER (A375 tumour bearing mice, 1 h): 2.670 % ID/g | uptake LUNGS (A375 tumour bearing mice, 1 h): 0.939 % ID/g | uptake MUSCLE (A375 tumour bearing mice, 1 h): 0.865 % ID/g | uptake SKIN (A375 tumour bearing mice, 1 h): 1.265 % ID/g | uptake SPLEEN (A375 tumour bearing mice, 1 h): 1.351 % ID/g | uptake STOMACH (A375 tumour bearing mice, 1 h): 1.899 % ID/g | uptake THYROID (A375 tumour bearing mice, 1 h): 1.162 % ID/g | uptake TUMOUR (A375 tumour bearing mice, 1 h): 0.920 % ID/g | uptake URINE (A375 tumour bearing mice, 1 h): 185.427 % ID/g | uptake BLADDER (A375 tumour bearing mice, 2 h): 4.835 % ID/g | uptake BLOOD (A375 tumour bearing mice, 2 h): 0.171 % ID/g | uptake BONE (A375 tumour bearing mice, 2 h): 0.548 % ID/g | uptake BRAIN (A375 tumour bearing mice, 2 h): 0.224 % ID/g | uptake EYES (A375 tumour bearing mice, 2 h): 0.238 % ID/g | uptake GIT (A375 tumour bearing mice, 2 h): 0.580 % ID/g | uptake HEART (A375 tumour bearing mice, 2 h): 0.205 % ID/g | uptake KIDNEY (A375 tumour bearing mice, 2 h): 0.650 % ID/g | uptake LIVER (A375 tumour bearing mice, 2 h): 0.985 % ID/g | uptake LUNGS (A375 tumour bearing mice, 2 h): 0.324 % ID/g | uptake MUSCLE (A375 tumour bearing mice, 2 h): 0.280 % ID/g | uptake SKIN (A375 tumour bearing mice, 2 h): 0.290 % ID/g | uptake SPLEEN (A375 tumour bearing mice, 2 h): 0.434 % ID/g | uptake STOMACH (A375 tumour bearing mice, 2 h): 0.748 % ID/g | uptake THYROID (A375 tumour bearing mice, 2 h): 0.356 % ID/g | uptake TUMOUR (A375 tumour bearing mice, 2 h): 0.254 % ID/g | uptake URINE (A375 tumour bearing mice, 2 h): 97.912 % ID/g | uptake BLADDER (A375 tumour bearing mice, 3 h): 0.360 % ID/g | uptake BLOOD (A375 tumour bearing mice, 3 h): 0.054 % ID/g | uptake BONE (A375 tumour bearing mice, 3 h): 0.443 % ID/g | uptake BRAIN (A375 tumour bearing mice, 3 h): 0.073 % ID/g | uptake EYES (A375 tumour bearing mice, 3 h): 0.110 % ID/g | uptake GIT (A375 tumour bearing mice, 3 h): 0.227 % ID/g | uptake HEART (A375 tumour bearing mice, 3 h): 0.045 % ID/g | uptake KIDNEY (A375 tumour bearing mice, 3 h): 0.197 % ID/g | uptake LIVER (A375 tumour bearing mice, 3 h): 0.323 % ID/g | uptake LUNGS (A375 tumour bearing mice, 3 h): 0.099 % ID/g | uptake MUSCLE (A375 tumour bearing mice, 3 h): 0.108 % ID/g | uptake SKIN (A375 tumour bearing mice, 3 h): 0.169 % ID/g | uptake SPLEEN (A375 tumour bearing mice, 3 h): 0.103 % ID/g | uptake STOMACH (A375 tumour bearing mice, 3 h): 0.302 % ID/g | uptake THYROID (A375 tumour bearing mice, 3 h): 0.128 % ID/g | uptake TUMOUR (A375 tumour bearing mice, 3 h): 0.096 % ID/g | uptake URINE (A375 tumour bearing mice, 3 h): 37.842 % ID/g

CCN(CC)CCNC(=O)c1cncc(I)c1 [[^123I]11, N-(2-(diethylamino)ethyl)-5-iodonicotinamide]
tumour standardized uptake value (SUVt) (A375 tumour, BALB/c nude mice, 1 h): 0.7 ± 0.1 | Organ distribution Intestine [2]: 14 ± 2 % ID/organ | Organ distribution Liver [2]: 2.3 ± 0.2 % ID/organ | Organ distribution Spleen [2]: 0.16 ± 0.01 % ID/organ | Organ distribution Stomach [2]: 1.6 ± 0.2 % ID/organ | Organ distribution Thyroid [2]: 0.40 ± 0.07 % ID/organ | Organ distribution Tumour [2]: 0.40 ± 0.16 % ID/organ | Uptake Lung [3]: 1.56 ± 0.2 % ID/g | uptake BLOOD [3]: 1.4 ± 0.2 % ID/g | uptake BRAIN [3]: 0.14 ± 0.02 % ID/g | uptake HEART [3]: 0.8 ± 0.1 % ID/g | uptake KIDNEY [3]: 1.9 ± 0.3 % ID/g | uptake LIVER [3]: 2.2 ± 0.4 % ID/g | uptake TUMOUR [3]: 1.2 ± 0.2 % ID/g | tumour standardized uptake value (SUVt) (A375 tumour, BALB/c nude mice, 6 h): 0.9 ± 0.2 | Organ distribution Intestine [4]: 2 ± 1 % ID/organ | Organ distribution Liver [4]: 0.7 ± 0.2 % ID/organ | Organ distribution Spleen [4]: 0.03 ± 0.01 % ID/organ | Organ distribution Stomach [4]: 0.4 ± 0.1 % ID/organ | Organ distribution Thyroid [4]: 1.0 ± 0.5 % ID/organ | Organ distribution Tumour [4]: 0.13 ± 0.06 % ID/organ | Uptake Lung [5]: 0.4 ± 0.2 % ID/g | uptake BLOOD [5]: 0.5 ± 0.2 % ID/g | uptake BRAIN [5]: 0.03 ± 0.01 % ID/g | uptake HEART [5]: 0.18 ± 0.07 % ID/g | uptake KIDNEY [5]: 0.47 ± 0.17 % ID/g | uptake LIVER [5]: 0.7 ± 0.3 % ID/g | uptake TUMOUR [5]: 0.4 ± 0.1 % ID/g | tumour standardized uptake value (SUVt) (A375 tumour, BALB/c nude mice, 24 h): 0.3 ± 0.1 | Organ distribution Intestine [6]: 0.04 ± 0.01 % ID/organ | Organ distribution Liver [6]: 0.09 ± 0.02 % ID/organ | Organ distribution Spleen [6]: 0.002 % ID/organ | Organ distribution Stomach [6]: 0.01 ± 0.00 % ID/organ | Organ distribution Thyroid [6]: 1.4 ± 0.8 % ID/organ | Organ distribution Tumour [6]: 0.001 % ID/organ | Uptake Lung [7]: 0.015 ± 0.004 % ID/g | uptake BLOOD [7]: 0.013 ± 0.002 % ID/g | uptake BRAIN [7]: 0.002 ± 0.001 % ID/g | uptake HEART [7]: 0.012 ± 0.003 % ID/g | uptake KIDNEY [7]: 0.013 ± 0.002 % ID/g | uptake LIVER [7]: 0.08 ± 0.02 % ID/g | uptake TUMOUR [7]: 0.007 ± 0.002 % ID/g
